The nature of the data set: Solubility in water. It counts as physicochemical. On the procedure: ^13C-BFA has suitable properties for polarization by DNP in that it is soluble forming >5 M solutions in water and readily forms a glass upon flash freezing. A 5 M solution of ^13C-BFA in water was prepared with 15 mM OXO63 radical and polarized by DNP by irradiating at 90940 MHz. A buildup time constant of 830 s provided ˜5% polarization (5450-fold enhancement factor) after 45 minutes. The spectroscopic detection of H2O2 of the probe was accomplished by rapidly dissolving polarized samples of ^13C-BFA in 100 mM phosphate buffer at pH 7.8 to a final concentration of 5 mM, followed by reaction with various concentrations of hydrogen peroxide.

The structures appear in SMILES notation.

With `O=C(c1ccccc1)[13C](=O)O` [^13C-BFA, ^13C-benzoylformic acid], the “solubility (solutions in water)” value was above 5000 mM.

For the origin of these results see patent US10245330B2, “Compositions and methods for imaging” (The Regents of the University of California, priority 2010, dated 2019).
